pIC50: −log10 of the molar value.
These compounds were tested against Tyrosine-protein kinase BTK (Homo sapiens, UniProt Q06187) (assay: HTRF Assay: An HTRF assay (Cisbio KinEASE-TK cat #62TKOPEC) was performed to quantitate the ability of test compounds to inhibit BTK mediated phosphorylation of substrate. Assays were assembled in 384 well plates where 6 nM of full-length human His-tagged BTK (Life Technologies cat #PV3587) and test compound at varying concentrations were preincubated for 15 minutes at 28° C. Then, 1 uM of TK substrate-biotin and 30 uM ATP were added and incubated for an additional 30 minutes at 28° C. Phospohrylation was detected by adding 62.5 nM Streptavidin-XL665 and TK-Antibody Cryptate diluted 1:100 in HTRF detection buffer (Cisbio cat #62SDBRDF) and incubated for 60 minutes at RT. The plate was read on an Envision plate reader and the fluoresence is measured at 620 nm (cryptate) and 665 nm (XL665). A ratio is calculated (665/620) and converted to POC relative to control and blank wells.Assay Buffer:50 mM HEPES (Invitrogen #15630), 0.01% Brij-35 (sigma #B4184), 10 mM MgC12 (Sigma M1028), 1 mM EGTA.).
Sequence of Tyrosine-protein kinase BTK (Q06187 whole entry): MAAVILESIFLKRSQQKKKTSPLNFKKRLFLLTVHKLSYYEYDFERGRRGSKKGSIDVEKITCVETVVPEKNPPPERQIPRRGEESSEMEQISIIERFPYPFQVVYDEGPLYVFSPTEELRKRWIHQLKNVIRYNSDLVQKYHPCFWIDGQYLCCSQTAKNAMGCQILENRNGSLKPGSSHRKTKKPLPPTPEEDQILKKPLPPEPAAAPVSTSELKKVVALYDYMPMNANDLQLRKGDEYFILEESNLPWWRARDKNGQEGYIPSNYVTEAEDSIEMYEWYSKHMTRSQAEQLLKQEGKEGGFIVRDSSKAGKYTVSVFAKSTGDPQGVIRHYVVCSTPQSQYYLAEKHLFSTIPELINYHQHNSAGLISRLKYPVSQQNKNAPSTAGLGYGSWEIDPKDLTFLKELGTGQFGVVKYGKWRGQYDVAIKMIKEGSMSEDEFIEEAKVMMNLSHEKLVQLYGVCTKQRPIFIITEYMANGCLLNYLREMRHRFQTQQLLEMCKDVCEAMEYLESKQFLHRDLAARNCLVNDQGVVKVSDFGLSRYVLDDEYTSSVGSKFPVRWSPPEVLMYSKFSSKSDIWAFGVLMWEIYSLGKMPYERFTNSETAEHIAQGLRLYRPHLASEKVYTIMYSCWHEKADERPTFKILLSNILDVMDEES

In order of falling pIC50:
1. CC#CC(=O)N1CC2(CC(n3nc(-c4ccc(Oc5ccccc5)cn4)c4c(N)ncnc43)C2)C1  9.00
2. C=CC(=O)N1CC2(CC(n3nc(-c4ccc(Oc5ccccc5)cn4)c4c(N)ncnc43)C2)C1  8.80
3. CC#CC(=O)N1CC[C@]2(C1)C[C@H](n1nc(-c3ccc(Oc4ccccc4)cn3)c3c(N)ncnc31)C2  8.40
4. C/C=C/C(=O)N1CC2(CC(n3nc(-c4ccc(Oc5ccccc5)cn4)c4c(N)ncnc43)C2)C1  7.19

Reference: ChEMBL document CHEMBL3638507, “Heteroaromatic compounds as BTK inhibitors” (2015)
